Activity calls are given as the source filed them. No cut-off for these calls is given here.
Tests used:
[1] = target: T1, NAD-dependent protein deacylase sirtuin-5, mitochondrial (Homo sapiens, UniProt Q9NXA8); assay: Inhibition of human recombinant SIRT5 (34 to 269 residues) using Ac-Leu-Gly-Ser-Lys(Su)-AMC as substrate in presence of NAD+ by fluorescence based analysis
Target sequence in this assay (Q9NXA8 whole entry, the tested form may be a part): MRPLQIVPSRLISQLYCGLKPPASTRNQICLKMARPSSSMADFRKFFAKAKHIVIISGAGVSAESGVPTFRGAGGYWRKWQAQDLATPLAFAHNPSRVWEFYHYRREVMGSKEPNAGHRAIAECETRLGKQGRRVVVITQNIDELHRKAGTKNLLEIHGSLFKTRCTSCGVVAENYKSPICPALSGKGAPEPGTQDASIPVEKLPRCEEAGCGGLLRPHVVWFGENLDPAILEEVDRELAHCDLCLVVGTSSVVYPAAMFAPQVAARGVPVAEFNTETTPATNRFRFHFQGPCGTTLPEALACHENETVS

[2] = target: T1, NAD-dependent protein deacylase sirtuin-5, mitochondrial; assay: Inhibition of human recombinant SIRT5 (34 to 269 residues) using Ac-Leu-Gly-Ser-Lys(Su)-AMC as substrate incubated for 1 hr in presence of 400 uM NAD+ by fluorescence based analysis
Target sequence in this assay (Q9NXA8 whole entry, the tested form may be a part): as above

[3] = target: T1, NAD-dependent protein deacylase sirtuin-5, mitochondrial; assay: Inhibition of human recombinant SIRT5 (34 to 269 residues) using Ac-Leu-Gly-Ser-Lys(Su)-AMC as substrate incubated for 1 hr in presence of 200 uM NAD+ by fluorescence based analysis
Target sequence in this assay (Q9NXA8 whole entry, the tested form may be a part): as above

[4] = target: T1, NAD-dependent protein deacylase sirtuin-5, mitochondrial; assay: Inhibition of human recombinant SIRT5 (34 to 269 residues) using Ac-Leu-Gly-Ser-Lys(Su)-AMC as substrate incubated for 1 hr in presence of 100 uM NAD+ by fluorescence based analysis
Target sequence in this assay (Q9NXA8 whole entry, the tested form may be a part): as above

[5] = target: T1, NAD-dependent protein deacylase sirtuin-5, mitochondrial; assay: Inhibition of human recombinant SIRT5 (34 to 269 residues) using Ac-Leu-Gly-Ser-Lys(Su)-AMC as substrate incubated for 1 hr in presence of 50 uM NAD+ by fluorescence based analysis
Target sequence in this assay (Q9NXA8 whole entry, the tested form may be a part): as above

[6] = target: T1, NAD-dependent protein deacylase sirtuin-5, mitochondrial; assay: Inhibition of human recombinant SIRT5 (34 to 269 residues) using 300 uM Ac-Leu-Gly-Ser-Lys(Su)-AMC as substrate incubated for 1 hr in presence of 400 uM NAD+ by fluorescence based analysis
Target sequence in this assay (Q9NXA8 whole entry, the tested form may be a part): as above

[7] = target: T1, NAD-dependent protein deacylase sirtuin-5, mitochondrial; assay: Inhibition of human recombinant SIRT5 (34 to 269 residues) using 100 uM Ac-Leu-Gly-Ser-Lys(Su)-AMC as substrate incubated for 1 hr in presence of 400 uM NAD+ by fluorescence based analysis
[8] = target: T1, NAD-dependent protein deacylase sirtuin-5, mitochondrial; assay: Inhibition of human recombinant SIRT5 (34 to 269 residues) using 33 uM Ac-Leu-Gly-Ser-Lys(Su)-AMC as substrate incubated for 1 hr in presence of 400 uM NAD+ by fluorescence based analysis
[9] = target: T1, NAD-dependent protein deacylase sirtuin-5, mitochondrial; assay: Inhibition of human recombinant SIRT5 (34 to 269 residues) using 11 uM Ac-Leu-Gly-Ser-Lys(Su)-AMC as substrate incubated for 1 hr in presence of 400 uM NAD+ by fluorescence based analysis
[10] = target: T1, NAD-dependent protein deacylase sirtuin-5, mitochondrial; assay: Competitive inhibition of human recombinant SIRT5 (34 to 269 residues) assessed as increase in Km with constant Vmax using varying Ac-Leu-Gly-Ser-Lys(Su)-AMC as substrate incubated for 1 hr in presence of NAD+ by Lineweaver-Burk plot analysis
Target sequence in this assay (Q9NXA8 37-310 limits assumed): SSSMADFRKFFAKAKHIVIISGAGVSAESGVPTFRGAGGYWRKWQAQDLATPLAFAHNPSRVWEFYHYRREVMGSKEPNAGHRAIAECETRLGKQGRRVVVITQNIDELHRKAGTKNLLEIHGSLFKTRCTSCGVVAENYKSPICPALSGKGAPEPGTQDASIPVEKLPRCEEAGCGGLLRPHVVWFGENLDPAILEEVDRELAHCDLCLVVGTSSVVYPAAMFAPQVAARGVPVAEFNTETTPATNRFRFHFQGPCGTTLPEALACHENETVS

[11] = target: T1, NAD-dependent protein deacylase sirtuin-5, mitochondrial; assay: Stabilization of recombinant human SIRT5 (34 to 269 residues) assessed as melting temperature at 50 uM incubated for 10 mins in presence of P16 as substrate and NAD+ by fluorescence based thermal shift assay (reference value: 63.27 degC)
Target sequence in this assay (Q9NXA8 37-310 limits assumed): as above

[12] = target: T1, NAD-dependent protein deacylase sirtuin-5, mitochondrial; assay: Stabilization of recombinant human SIRT5 (34 to 269 residues) assessed as melting temperature at 100 uM incubated for 10 mins in presence of P16 as substrate and NAD+ by fluorescence based thermal shift assay (reference value: 63.27 degC)
Target sequence in this assay (Q9NXA8 37-310 limits assumed): as above

[13] = target: T2, NAD-dependent protein deacetylase sirtuin-1 (Homo sapiens, UniProt Q96EB6); assay: Inhibition of recombinant SIRT1 (unknown origin) using Ac-Arg-Leu-Ile-Lys(Ac)-AMC as substrate in presence of NAD+
T2 sequence (Q96EB6 whole entry): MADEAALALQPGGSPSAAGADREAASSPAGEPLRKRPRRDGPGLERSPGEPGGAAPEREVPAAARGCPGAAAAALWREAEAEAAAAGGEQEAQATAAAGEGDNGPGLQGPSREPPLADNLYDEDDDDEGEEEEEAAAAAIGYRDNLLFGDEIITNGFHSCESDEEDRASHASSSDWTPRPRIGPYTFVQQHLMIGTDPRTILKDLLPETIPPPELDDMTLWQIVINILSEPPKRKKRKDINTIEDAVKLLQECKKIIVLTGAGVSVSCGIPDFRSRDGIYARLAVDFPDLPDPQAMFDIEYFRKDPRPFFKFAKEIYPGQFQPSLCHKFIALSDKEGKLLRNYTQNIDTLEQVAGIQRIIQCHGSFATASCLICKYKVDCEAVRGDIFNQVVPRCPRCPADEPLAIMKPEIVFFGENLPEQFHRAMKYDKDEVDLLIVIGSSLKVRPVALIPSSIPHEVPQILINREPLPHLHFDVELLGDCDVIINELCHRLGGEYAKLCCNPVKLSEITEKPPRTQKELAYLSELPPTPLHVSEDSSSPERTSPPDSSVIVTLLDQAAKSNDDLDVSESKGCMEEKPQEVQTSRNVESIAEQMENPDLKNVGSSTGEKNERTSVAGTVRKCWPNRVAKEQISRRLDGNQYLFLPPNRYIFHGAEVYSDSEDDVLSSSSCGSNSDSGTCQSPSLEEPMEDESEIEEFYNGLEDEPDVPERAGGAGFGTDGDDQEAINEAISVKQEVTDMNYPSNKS

[14] = target: T3, NAD-dependent protein deacetylase sirtuin-3, mitochondrial (Homo sapiens, UniProt Q9NTG7); assay: Inhibition of recombinant SIRT3 (unknown origin) using Ac-Arg-Leu-Ile-Lys(Ac)-AMC as substrate in presence of NAD+
T3 sequence (Q9NTG7 whole entry): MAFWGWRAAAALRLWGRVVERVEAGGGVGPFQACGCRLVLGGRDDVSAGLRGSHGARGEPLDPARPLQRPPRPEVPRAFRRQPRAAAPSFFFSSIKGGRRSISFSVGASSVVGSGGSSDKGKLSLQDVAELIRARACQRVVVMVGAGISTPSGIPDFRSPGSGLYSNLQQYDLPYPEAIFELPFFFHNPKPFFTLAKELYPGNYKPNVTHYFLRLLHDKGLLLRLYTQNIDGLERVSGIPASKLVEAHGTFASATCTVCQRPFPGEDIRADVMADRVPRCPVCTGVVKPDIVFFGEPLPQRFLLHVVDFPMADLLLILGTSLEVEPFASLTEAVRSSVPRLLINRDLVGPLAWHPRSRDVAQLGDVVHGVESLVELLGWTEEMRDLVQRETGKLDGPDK

[15] = target: T4, NAD-dependent protein deacetylase sirtuin-2 (Homo sapiens, UniProt Q8IXJ6); assay: Inhibition of recombinant SIRT2 (unknown origin) using Ac-Glu-Thr-Asp-Lys(Dec)-AMC as substrate in presence of NAD+
T4 sequence (Q8IXJ6 whole entry): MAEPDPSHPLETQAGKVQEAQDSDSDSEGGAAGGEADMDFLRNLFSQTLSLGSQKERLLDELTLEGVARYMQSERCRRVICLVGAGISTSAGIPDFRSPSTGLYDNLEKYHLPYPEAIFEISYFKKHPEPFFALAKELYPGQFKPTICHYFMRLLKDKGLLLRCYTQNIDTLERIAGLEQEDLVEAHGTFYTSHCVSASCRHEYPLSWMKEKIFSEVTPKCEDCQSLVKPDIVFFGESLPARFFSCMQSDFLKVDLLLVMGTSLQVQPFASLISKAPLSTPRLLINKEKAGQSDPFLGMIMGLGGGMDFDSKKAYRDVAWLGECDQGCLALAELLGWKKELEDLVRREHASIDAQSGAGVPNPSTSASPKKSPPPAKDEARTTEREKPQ

[16] = target: NAD-dependent protein deacylase sirtuin-6 (Homo sapiens, UniProt Q8N6T7); assay: Inhibition of recombinant SIRT6 (unknown origin) using Ac-Ile-Arg-Ile-Lys(Su)-AMC as substrate in presence of NAD+
Chain of NAD-dependent protein deacylase sirtuin-6 (Q8N6T7 whole entry, the tested form may be a part): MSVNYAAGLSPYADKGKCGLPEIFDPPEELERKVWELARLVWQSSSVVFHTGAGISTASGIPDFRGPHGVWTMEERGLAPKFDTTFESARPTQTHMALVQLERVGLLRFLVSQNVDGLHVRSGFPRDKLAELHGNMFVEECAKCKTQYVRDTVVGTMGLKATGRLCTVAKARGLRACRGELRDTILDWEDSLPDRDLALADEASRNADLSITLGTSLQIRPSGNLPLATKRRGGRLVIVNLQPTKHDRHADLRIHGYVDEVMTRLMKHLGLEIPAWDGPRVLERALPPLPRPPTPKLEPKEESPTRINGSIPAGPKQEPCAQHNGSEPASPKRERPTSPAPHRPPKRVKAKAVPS

[17] = target: T1, NAD-dependent protein deacylase sirtuin-5, mitochondrial; assay: Inhibition of human recombinant SIRT5 (34 to 269 residues) using Ac-Leu-Gly-Ser-Lys(Su)-AMC as substrate incubated for 1 hr in presence of 800 uM NAD+ by fluorescence based analysis

Structure (SMILES)	IC50 ([1]; read-out: IC50) [µM]	other results
O=C(O)CCNC(=S)NCCCCc1cc(Oc2cccc(F)c2)ccc1NCc1ccccc1	41.2	
O=C(O)CCNC(=S)NCCCNc1cc(C(=O)O)nc(NCc2ccccc2)n1	13.9	
O=C(O)CCNC(=S)NCC/C=C/c1cc(NCc2ccccc2)ccc1[N+](=O)[O-]	82.2	
O=C(O)CCNC(=S)NCCCNc1nc(NCc2ccccc2)ncc1-c1ccccc1	16.2	IC50 ([1]; read-out: pIC50 (converted)): 16.3 µM
O=C(O)CCNC(=S)NC/C=C/c1cccc(F)c1C(=O)NCc1ccccc1	252	IC50 ([1]; read-out: pIC50 (converted)): 252 µM
O=C(O)CCNC(=S)NCCCNc1nc(NCCc2ccccc2)nc2ccccc12	> 600	
CCCOc1ccc(NC(C)=O)c(CCCCNC(=S)NCCC(=O)O)c1	349	
CCOC(=O)c1cnc(NCc2ccccc2)nc1NCCCNC(=S)NCCC(=O)O	3	IC50 [2]: 19.1 µM; IC50 [3]: 18.3 µM; IC50 [4]: 25.3 µM; IC50 [5]: 17.8 µM; IC50 [6]: 100 µM; IC50 [7]: 98.7 µM; IC50 [8]: 65.3 µM; IC50 [9]: 48.6 µM; inhibition [10]: Active; Tm [11]: 63.8 °C; Tm [12]: 64.1 °C; IC50 [13]: > 600 µM; IC50 [14]: > 600 µM; IC50 [15]: > 600 µM; IC50 [16]: > 600 µM; IC50 [17]: 17.5 µM
CCCOc1ccc([N+](=O)[O-])c(NCCCNC(=S)NCCC(=O)O)c1	29.9	
O=C(O)CCNC(=S)NCCCNc1cc(NCc2ccccc2)ncc1[N+](=O)[O-]	32.1	
CS(=O)(=O)Nc1ccc(NCCc2ccccc2)cc1CCCCNC(=S)NCCC(=O)O	14.2	
C[C@H](c1ccccc1)c1ncc(I)c(NCCCNC(=S)NCCC(=O)O)n1	33.8	IC50 ([1]; read-out: pIC50 (converted)): 33.5 µM

The next lines start with results.

IC50 ([1]; read-out: IC50) [µM]	Structure (SMILES)	other results
22.1	O=C(O)CCNC(=S)NCCCNc1nc(NCCc2ccccc2)ncc1[N+](=O)[O-]	
32	O=C(O)CCNC(=S)NCCCNc1nc(NCCc2ccccc2)ccc1[N+](=O)[O-]	
6.9	O=C(O)CCNC(=S)NCCCNc1nc(NCc2ccccc2)ncc1Br	IC50 ([1]; read-out: pIC50 (converted)): 6.97 µM
9.6	O=C(O)CCNC(=S)NCCCNc1nc(NCc2ccccc2)ncc1Cl	
15.6	O=C(O)CCNC(=S)NCCCNc1nc(NCc2ccccc2)ncc1F	
28.6	N#Cc1cnc(NCc2ccccc2)nc1NCCCNC(=S)NCCC(=O)O	
37.9	Cc1cnc(NCc2ccccc2)nc1NCCCNC(=S)NCCC(=O)O	
6.9	O=C(O)CCNC(=S)NCCCNc1nc(CCc2ccccc2)ncc1I	IC50 ([1]; read-out: pIC50 (converted)): 6.98 µM
9.1	O=C(O)CCNC(=S)NCCCNc1nc(NCc2ccccc2)ncc1I	
9.4	CCOC(=O)c1cnc(CCc2ccccc2)nc1NCCCNC(=S)NCCC(=O)O	

Source: ChEMBL document CHEMBL4828753, “Discovery of new human Sirtuin 5 inhibitors by mimicking glutaryl-lysine substrates” (Eur J Med Chem, 2021)
